Tests used:
Pharmacokinetics in mice = assay type: in vivo, mouse; conditions: mice
Method: Wildtype or non-transgenic (NTg) C57Bl6 mice or Sprague-Dawley rats were dosed by oral (gavage) or subcutaneous (SQ) injection at 10 or 30 mg/kg, and animals were euthanized 1, 2, 6, and 8 h after administration by ketamine/xylazine over-anesthesia, in rats, CSF was also collected, followed by transcardial collection of blood for isolation of plasma and saline perfusion. Brain tissue was collected post-mortem for assessment of compound levels and biomarkers.
Analyses of compound levels in PK studies were performed in the UCLA Pasarow Mass Spectrometry Lab (PMSL; Julian Whitelegge, Ph.D., Director). Tissues were homogenized in a bead beater using 5 vol of ice-cold 80 % acetonitrile (1/5; mg of brain/μL of 80 % ACN). Plasma analytes were extracted using 4 vol of ice-cold acetonitrile (1/4; μL of plasma/μL of 100 % ACN). Solutions were clarified by centrifugation (16,000×g, 5 min) and the supernatants were transferred to new tubes and lyophilized. Samples were reconstituted in 100 μL of 50/50/0.1 (Water/Acetonitrile/Formic Acid) prior to analysis via liquid chromatography-tandem mass spectrometry (LC-MS/MS).
An internal standard (IS) was added to every sample to account for compound loss during sample processing. Standards were made in drug naïve plasma and tissue lysates with increasing amounts of analyte (S1, S2: 0 pmol/S3, S4: 1 pmol/S5, S6: 10 pmol/S7, S8: 100 pmol, S9, S10: 1000 pmol). The standard curve was made by plotting the known amount of analyte per standard vs. the ratio of measured chromatographic peak areas corresponding to the analyte over that of the IS (analyte/IS). The trendline equation was then used to calculate the absolute concentrations of each compound in plasma and tissue.
The targeted LC-MS/MS assay was developed using the multiple reaction monitoring (MRM) acquisition method on a 6460 triple quadrupole mass spectrometer (Agilent Technologies) coupled to a 1290 Infinity HPLC system (Agilent Technologies) with a Phenomenex analytical column (Kinetex 1.7 μm C18 100 Å 100 × 2.1 mm). The HPLC method utilized a mixture of solvent A (99.9/0.1 Water/Formic Acid) and solvent B (99.9/0.1 Acetonitrile/Formic Acid) and a gradient was use for the elution of the compounds (min/%B: 0/1, 3/1, 19/99, 20/1, 30/1). Two fragment ions were monitored at specific LC retention times to ensure specificity and accurate quantification in the complex biological samples. The normalized chromatographic peak areas were determined by taking the ratio of measured chromatographic peak areas corresponding to the compound over that of the internal standard (Analyte/IS).
The Tmax, Cmax, brain-to-plasma ratios and brain levels were then calculated using PK Solutions software (SummitPK).

[1] = target: T1, potassium channel hERG (human) (Homo sapiens, UniProt Q12809); experiment: hERG [3H] dofitilide binding assay
T1 construct: Eurofins (CEREP PanLabs)
Excerpt: The raw data uncorrected for contribution of
Animals were euthanized at
biochemical analyses (Fig. S3).
at Lotus Separations (Princeton, NJ).

cathepsin D (CatD) = target: T2, cathepsin D (CatD) (Homo sapiens, UniProt P07339); experiment: Cathepsin D activity assay; assay type: biochemical
T2 construct: purchased R&D Systems 1014-AS
Method: The effects of candidate ASBIs on cathepsin D (CatD) activity was assessed using the R&D Systems CatD activity assay kit (Catalog #: 1014-AS and ES001) according to the manufacturer's instructions. For the assay, 4 μL of assay buffer was added to each well, followed by 2 μL of CatD diluted in assay buffer to 5 ng/uL. Then, 2 μL of inhibitor, at concentrations along an 11 pt. two-fold dilution series starting at 50 μM, were added to appropriated wells and incubated for 30 min at room temperature. For all dilutions of inhibitor, drug stock solutions of 10 mM in DMSO were diluted to 50 μM in water; subsequent dilutions were in 2.5 % DMSO. Afterwards, 2 μL of fluorogenic CatD substrate, diluted to 50 μM in assay buffer, were added to each well, after which the signal generated was read every 30 min at 25 °C for 1hr.

T2 sequence (P07339 65-412): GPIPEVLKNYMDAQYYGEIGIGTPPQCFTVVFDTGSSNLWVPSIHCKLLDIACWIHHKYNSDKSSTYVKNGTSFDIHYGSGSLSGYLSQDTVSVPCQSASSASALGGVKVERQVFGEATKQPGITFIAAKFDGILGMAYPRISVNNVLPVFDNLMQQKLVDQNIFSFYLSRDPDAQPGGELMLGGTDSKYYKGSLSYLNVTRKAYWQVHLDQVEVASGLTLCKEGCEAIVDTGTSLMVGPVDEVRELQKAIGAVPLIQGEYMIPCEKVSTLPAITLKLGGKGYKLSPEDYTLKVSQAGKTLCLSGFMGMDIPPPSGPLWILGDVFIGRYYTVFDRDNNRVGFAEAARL
T1 sequence (Q12809 whole entry): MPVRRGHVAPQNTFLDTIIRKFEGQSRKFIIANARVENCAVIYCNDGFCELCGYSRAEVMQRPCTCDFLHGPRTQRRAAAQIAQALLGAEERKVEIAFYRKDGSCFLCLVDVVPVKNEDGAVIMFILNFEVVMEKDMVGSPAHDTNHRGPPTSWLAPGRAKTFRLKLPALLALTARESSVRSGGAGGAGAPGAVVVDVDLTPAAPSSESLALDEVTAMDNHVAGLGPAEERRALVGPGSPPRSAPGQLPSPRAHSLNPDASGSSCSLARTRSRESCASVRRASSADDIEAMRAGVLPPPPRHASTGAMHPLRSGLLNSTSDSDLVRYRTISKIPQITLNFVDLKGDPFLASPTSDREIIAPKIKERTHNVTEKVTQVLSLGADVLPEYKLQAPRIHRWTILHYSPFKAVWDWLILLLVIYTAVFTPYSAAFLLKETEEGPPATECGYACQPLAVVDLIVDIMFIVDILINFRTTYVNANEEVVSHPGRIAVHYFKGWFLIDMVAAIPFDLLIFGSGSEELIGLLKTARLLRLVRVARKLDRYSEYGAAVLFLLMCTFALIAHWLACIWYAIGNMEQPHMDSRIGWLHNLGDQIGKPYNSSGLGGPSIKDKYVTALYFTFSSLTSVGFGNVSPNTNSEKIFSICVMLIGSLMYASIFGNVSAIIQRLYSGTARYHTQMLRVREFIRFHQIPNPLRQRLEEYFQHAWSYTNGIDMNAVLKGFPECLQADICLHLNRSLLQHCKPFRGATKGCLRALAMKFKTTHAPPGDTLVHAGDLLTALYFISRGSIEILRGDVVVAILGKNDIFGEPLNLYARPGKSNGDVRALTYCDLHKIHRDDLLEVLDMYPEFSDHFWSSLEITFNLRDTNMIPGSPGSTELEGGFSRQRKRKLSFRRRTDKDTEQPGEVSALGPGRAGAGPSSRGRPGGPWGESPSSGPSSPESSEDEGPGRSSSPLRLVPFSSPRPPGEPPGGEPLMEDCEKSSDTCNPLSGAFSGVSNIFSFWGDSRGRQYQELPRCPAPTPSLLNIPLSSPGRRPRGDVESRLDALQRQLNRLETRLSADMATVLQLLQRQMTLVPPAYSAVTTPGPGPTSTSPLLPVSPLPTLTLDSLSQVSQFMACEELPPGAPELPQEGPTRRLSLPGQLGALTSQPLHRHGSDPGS

Cmax (Pharmacokinetics in mice; C57Bl6, mouse, plasma, oral, 30 mg/kg): ~50 ng/mL
brain Cmax (Pharmacokinetics in mice; oral, 30 mg/kg): 74 ng/g
time of brain Cmax (Pharmacokinetics in mice; oral, 30 mg/kg): 1 h
compound levels in plasma (Pharmacokinetics in mice; subcutaneous (SQ), 10 or 30 mg/kg): over 3000 ng/mL
inhibition of cathepsin D activity (cathepsin D (CatD); in words): Neither analog significantly inhibited
IC50 (cathepsin D (CatD); read-out: Cat D IC50): ~47 µM
Structure (SMILES): Cc1cc(C2(c3cccc(-c4cncnc4)c3)N=C(N)N(C)C2=O)ccc1OC(F)F (centres unmarked) [FAH65]
EC50 [1]: > 10 µM
IC50 [1]: > 10 µM
